Laboratory results published in publication PMC8118430, “Utility of novel 2-furanones in synthesis of other heterocyclic compounds having anti-inflammatory activity with dual COX2/LOX inhibition” (Journal of Enzyme Inhibition and Medicinal Chemistry, 2021).

Key:
COX-2 = molecular target: T1, COX-2 (Homo sapiens, UniProt P35354); test: Cyclooxygenase COX-2 inhibition assay (Cayman COX inhibitor screening kit, EIA); conditions: for Selectivity indexes (SI): SI = IC50 COX-1/COX-2 ratios; for COX-2 inhibition, in words (SAR discussion): qualitative statement
T1 sequence (P35354 18-604): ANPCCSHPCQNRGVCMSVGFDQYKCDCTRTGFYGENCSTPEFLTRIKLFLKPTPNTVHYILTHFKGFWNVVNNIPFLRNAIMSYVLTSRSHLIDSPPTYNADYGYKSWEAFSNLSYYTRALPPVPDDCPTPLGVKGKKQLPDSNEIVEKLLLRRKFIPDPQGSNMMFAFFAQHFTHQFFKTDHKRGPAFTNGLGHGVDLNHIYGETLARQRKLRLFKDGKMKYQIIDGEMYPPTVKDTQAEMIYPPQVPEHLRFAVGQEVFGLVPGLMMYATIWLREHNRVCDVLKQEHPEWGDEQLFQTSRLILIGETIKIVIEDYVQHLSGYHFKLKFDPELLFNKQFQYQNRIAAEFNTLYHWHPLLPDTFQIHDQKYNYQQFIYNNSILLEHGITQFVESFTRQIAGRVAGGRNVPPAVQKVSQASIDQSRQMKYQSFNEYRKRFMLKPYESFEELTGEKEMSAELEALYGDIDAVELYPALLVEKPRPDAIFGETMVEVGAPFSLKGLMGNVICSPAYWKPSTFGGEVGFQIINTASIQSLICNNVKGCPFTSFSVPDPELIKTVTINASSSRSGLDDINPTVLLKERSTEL
Description: (§1) Tested compounds were dissolved in DMSO. […] The COX inhibitor screening assay depends on direct measurement of the amount of PG2α produced in the COX reaction. […] Enzyme catalysis was terminated by addition of 50 µl 1 M HCl and 100 µl of the saturated stannous chloride solution. The PGs are quantified by enzyme immunoassay (EIA) at 410 nm.
(§2) Thus, the newly synthesised compounds were tested for their anti-inflammatory activity against isozymes COX-1 and COX-2, which were determined by the COX-catalysed transformation of AA into PGH2 that was reduced to PGF2α and detected by the EIA[53], as shown in Table 1.

TNF-α = molecular target: T2, TNF-α (Homo sapiens, UniProt P01375); test: TNFR2: TNF-α [biotinylated] inhibitor screening assay; format: binding; conditions: for IC50: mean ± SD of three experiments
T2 construct: purchased BPS Bioscience 79756
Description: The assay was performed in triplicates using TNFR2: TNF-α [biotinylated] […] First, TNFR2 is coated on a 96-well plate. Next, biotinylated TNF-α is incubated with TNFR2 on the plate. Finally, the plate was treated with streptavidin-HRP followed by addition of an HRP substrate to produce chemiluminescence, which can be measured using a chemiluminescence reader.

COX-1 = molecular target: T3, COX-1 (Ovis aries, UniProt P05979); test: Cyclooxygenase COX-1 inhibition assay (Cayman COX inhibitor screening kit, EIA)
T3 sequence (P05979 25-600): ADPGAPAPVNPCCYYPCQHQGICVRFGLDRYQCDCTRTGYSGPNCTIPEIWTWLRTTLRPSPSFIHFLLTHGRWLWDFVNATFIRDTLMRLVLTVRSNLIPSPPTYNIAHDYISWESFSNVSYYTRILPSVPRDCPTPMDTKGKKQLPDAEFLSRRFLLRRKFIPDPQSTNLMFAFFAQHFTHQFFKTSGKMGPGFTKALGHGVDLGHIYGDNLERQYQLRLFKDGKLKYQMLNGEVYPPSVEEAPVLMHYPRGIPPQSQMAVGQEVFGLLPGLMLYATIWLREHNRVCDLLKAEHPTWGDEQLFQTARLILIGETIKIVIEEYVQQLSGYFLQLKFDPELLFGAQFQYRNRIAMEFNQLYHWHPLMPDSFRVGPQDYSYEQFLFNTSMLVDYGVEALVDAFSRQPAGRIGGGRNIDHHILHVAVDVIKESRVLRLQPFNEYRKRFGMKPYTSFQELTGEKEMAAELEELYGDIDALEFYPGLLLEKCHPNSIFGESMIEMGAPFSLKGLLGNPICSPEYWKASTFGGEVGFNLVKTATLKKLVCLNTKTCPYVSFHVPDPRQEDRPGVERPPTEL
Description: as §1, §2

15-LOX = molecular target: T4, 15-LOX (Glycine max, UniProt P08170); test: Lipoxygenase (15-LOX) inhibition assay (Cayman LOX inhibitor screening kit); format: biochemical, soybean; conditions: mean ± SD of three experiments
T4 construct: purchased Cayman Chemical 760700
T4 sequence (P08170 1-839): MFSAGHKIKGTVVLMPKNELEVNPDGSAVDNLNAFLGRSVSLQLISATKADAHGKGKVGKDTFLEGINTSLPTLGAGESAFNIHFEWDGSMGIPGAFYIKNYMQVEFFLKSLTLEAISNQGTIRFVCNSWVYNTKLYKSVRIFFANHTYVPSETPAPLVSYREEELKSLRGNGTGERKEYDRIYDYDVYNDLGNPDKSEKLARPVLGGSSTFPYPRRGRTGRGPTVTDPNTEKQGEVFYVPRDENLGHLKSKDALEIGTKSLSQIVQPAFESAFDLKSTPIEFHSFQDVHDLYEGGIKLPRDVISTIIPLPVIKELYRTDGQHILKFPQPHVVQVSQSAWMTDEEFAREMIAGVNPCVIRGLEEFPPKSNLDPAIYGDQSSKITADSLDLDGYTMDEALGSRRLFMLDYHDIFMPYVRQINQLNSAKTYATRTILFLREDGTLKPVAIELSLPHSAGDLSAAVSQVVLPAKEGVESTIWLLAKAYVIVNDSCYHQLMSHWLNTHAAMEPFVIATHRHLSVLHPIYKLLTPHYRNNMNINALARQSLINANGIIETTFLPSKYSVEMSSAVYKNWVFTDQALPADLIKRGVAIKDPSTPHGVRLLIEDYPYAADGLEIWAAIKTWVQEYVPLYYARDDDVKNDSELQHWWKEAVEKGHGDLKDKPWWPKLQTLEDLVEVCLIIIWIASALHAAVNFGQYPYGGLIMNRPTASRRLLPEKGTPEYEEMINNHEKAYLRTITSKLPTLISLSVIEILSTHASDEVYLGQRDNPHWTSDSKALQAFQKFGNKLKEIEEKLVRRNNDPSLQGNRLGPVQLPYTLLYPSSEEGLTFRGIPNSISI
Description: Briefly, in a 96-well plate, 10 µl of each test compound (dissolved in DMSO) or vehicle were pre-incubated with 90 µl of 15-LOX enzyme. The reaction was started by addition of 10 µl of substrate (AA) and the plate was shaken for at least 5 min. Then, 100 µl of chromogen supplied with the kit was added to each well to stop the enzymatic reaction and develop the colour. The absorbance was measured at 490 nm using microplate reader.
Therefore, the soybean LOX is most like the mammalian 15-LOX[59].

T2 sequence (P01375 77-233 limits assumed): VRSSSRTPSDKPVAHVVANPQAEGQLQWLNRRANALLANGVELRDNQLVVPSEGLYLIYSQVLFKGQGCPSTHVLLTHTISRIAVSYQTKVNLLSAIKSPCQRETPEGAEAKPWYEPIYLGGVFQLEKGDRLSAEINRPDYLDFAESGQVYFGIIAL

| Structure (SMILES) | IC50 (COX-2) [nM] | Selectivity indexes (SI) (COX-2) | COX-2 inhibition, in words (SAR discussion) (COX-2) | IC50 (TNF-α) [nM] | melting point [°C] | IC50 (COX-1) [nM] | IC50 (15-LOX) [nM] | TNF-α inhibition, in words (discussion) (TNF-α; qualitative statement) |
| --- | --- | --- | --- | --- | --- | --- | --- | --- |
| NNC(=O)C(=Cc1ccccc1[N+](=O)[O-])CC(=O)c1ccc(Cl)c(Cl)c1 [Compound 6a, 4-(3,4-Dichlorophenyl)-2-(2-nitrobenzylidene)-4-oxo-butanehydrazide] | 90 | 107.44 | high activity | 5.87 ± 0.12 | 164 to 166 | 9670 ± 60 | 2830 ± 60 |  |
| NNC(=O)C(=Cc1cccc([N+](=O)[O-])c1)CC(=O)c1ccc(Cl)c(Cl)c1 [Compound 6b, 4-(3,4-Dichlorophenyl)-2-(3-nitrobenzylidene)-4-oxo-butanehydrazide] | 80 | 125.88 | high activity | 4.1 ± 0.1 | 160 to 162 | 10100 ± 150 | 2470 ± 60 |  |
| O=C1NN(C(=O)c2ccccc2)C(c2ccc(Cl)c(Cl)c2)=CC1=Cc1ccccc1[N+](=O)[O-] [Compound 8a, 2-Benzoyl-5-(2-nitrobenzylidene)-3-(3,4-dichlorophenyl)-1H-pyridazin-6-one] | 70 | 153.86 |  | 3.83 ± 1.44 | 222 to 224 | 10800 ± 150 | 2330 ± 510 |  |
| O=C1NN(C(=O)c2ccccc2)C(c2ccc(Cl)c(Cl)c2)=CC1=Cc1cccc([N+](=O)[O-])c1 [Compound 8b, 2-Benzoyl-5-(3-nitrobenzylidene)-3-(3,4-dichlorophenyl)-1H-pyridazin-6-one] | 40 | 316.75 |  | 3.47 ± 0.06 | 150 to 152 | 12670 ± 120 | 2470 ± 60 |  |

More lines, now with the values ahead:

| IC50 (COX-2) [nM] | Selectivity indexes (SI) (COX-2) | COX-2 inhibition, in words (SAR discussion) (COX-2) | IC50 (TNF-α) [nM] | melting point [°C] | IC50 (COX-1) [nM] | IC50 (15-LOX) [nM] | TNF-α inhibition, in words (discussion) (TNF-α; qualitative statement) | Structure (SMILES) |
| --- | --- | --- | --- | --- | --- | --- | --- | --- |
| 100 ± 10 | 88.30 |  | 6.17 ± 0.06 | 154 to 156 | 8830 ± 60 | 3170 ± 60 |  | CN(C)c1ccc(C=C(CC(=O)c2ccc(Cl)c(Cl)c2)C(=O)NN)cc1 [Compound 6c, 4-(3,4-Dichlorophenyl)-2-(4-dimethylaminobenzylidene)-4-oxo-butanehydrazide] |
| 40 | 326.75 |  | 2.9 ± 0.1 | 229 to 231 | 13070 ± 120 | 3170 ± 60 | lowest IC50 value | CN(C)c1ccc(C=C2C=C(c3ccc(Cl)c(Cl)c3)N(C(=O)c3ccccc3)NC2=O)cc1 [Compound 8c, 2-Benzoyl-5-(4-dimethylaminobenzylidene)-3-(3,4-dichlorophenyl)-1H-pyridazin-6-one] |
| 280 ± 10 | 33.68 |  | 5.57 ± 0.06 | 214 to 216 | 9430 ± 120 | 2070 ± 150 |  | O=C(CC(=Cc1ccccc1[N+](=O)[O-])c1n[nH]c(=S)o1)c1ccc(Cl)c(Cl)c1 [Compound 9a, 1-(3,4-Dichlorophenyl)-4-(2-nitrophenyl)-3-(2-thioxo-4,5-dihydro-1,3,4-oxadiazol-5-yl)but-3-en-1-one] |
| 220 ± 10 | 40.59 |  | 6.27 ± 0.15 | 162 to 164 | 8930 ± 60 | 2000 ± 170 |  | CN(C)c1ccc(C=C(CC(=O)c2ccc(Cl)c(Cl)c2)c2n[nH]c(=S)o2)cc1 [Compound 9c, 1-(3,4-Dichlorophenyl)-4-(4-dimethylaminophenyl)-3-(2-thioxo-4,5-dihydro-1,3,4-oxadiazol-5-yl)but-3-en-1-one] |
